Data published in US8143282B2, “Heterocyclic compounds” (S*BIO Pte Ltd., priority 2005, dated 2012).

Experiments:
HCT116 = test: Cell-based proliferation assay for GI50 (CyQUANT), HCT116; details: Homo sapiens, HCT-116; HCT116, 96 h treatment; read-out: Cellular or Growth Inhibition Activity, GI50, HCT116
Experimental: (§1) Human colon cancer cell lines (Colo205, HCT116), Ovarian cancer cell line (A2780), Hepatoma cell line (HEP3B), Prostate cancer cell line (PC3) were obtained from ATCC or ECACC. Colo205 cells were cultivated in RPMI 1640 containing 2 mM L-Glutamine, 5% FBS, 1.0 mM Na Pyruvate, 1 U/ml of penicillin and 1 μg of streptomycin. HCT116 cells were cultivated in McCoy's containing RPMI 1640 containing 2 mM L-Glutamine, 5% FBS, 1 U/ml of penicillin and 1 μg of streptomycin. A2780 cells were cultivated in RPMI 1640 containing 2 mM L-Glutamine, 5% FBS, 1 U/ml of penicillin and 1 μg of streptomycin. HEP3B cells were cultivated in EMEM containing 2 mM L-glutamine, 5% FBS, 1% non essential amino acid, 1 mM Na Pyruvate, 1 U/ml of penicillin and 1 μg of streptomycin. PC3 cells were cultivated in F12K, 2 mM L-glutamine, 5% FBS, 1 U/ml of penicillin and 1 μg of streptomycin. PC3, Colo205, and HCT116 cells were seeded in 96-wells plate at 1000, 5000 and 6000 cells per well respectively. A2780 and HEP3B cells were seeded in 96-wells plate at 4000 cells per well respectively. The plates were incubated at 37° C., 5% CO2, for 24 h. Cells were treated with compounds at various concentrations for 96 h. Cell growth was then monitored using CyQUANT® cell proliferation assay (Invitrogen Pte Ltd). Dose response curves were plotted to determine GI50 values for the compounds using XL-fit (ID Business Solution, Emeryville, Calif.). GI50 is defined as the concentration of compound required for 50% inhibition of cell growth.

PC3 = test: Cell-based proliferation assay for GI50 (CyQUANT), PC3; details: Homo sapiens, PC-3; PC3, 96 h treatment; read-out: Cellular or Growth Inhibition Activity, GI50, PC3
Experimental: as §1

Colo205 cells = test: Cell-based proliferation assay for GI50 (CyQUANT), Colo205; details: Homo sapiens, COLO 205, 96 h treatment, read-out: Cellular or Growth Inhibition Activity in Colo205 cells, GI50
Procedure, shortened: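 Cells were seeded at 1000 (PC3), 5000 (Colo205), 6000 (HCT116) or 4000 (HEP3B) per well and left 24 h at 37° C. Compound treatment lasted 96 h. Growth was read by CyQUANT, and GI50 (50% growth inhibition) came from dose-response curves.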

A2780 = test: Cell-based proliferation assay for GI50 (CyQUANT), A2780; details: Homo sapiens; A2780, 96 h treatment; read-out: Cellular or Growth Inhibition Activity, GI50, A2780
Experimental: as §1

HDAC1 enzyme = molecular target: T1, HDAC1 enzyme (Homo sapiens, UniProt Q13547); test: In vitro HDAC assay for determination of IC50 values (BIOMOL fluorescent-based HDAC activity assay); type: biochemical
T1 construct: Amplification of human HDAC1 coding region from this cDNA library was cloned separately into the baculovirus expression pDEST20 vector; made in house; host or cells: SF9 insect cells, pDEST20-HDAC1 baculovirus
T1 sequence (Q13547 whole entry): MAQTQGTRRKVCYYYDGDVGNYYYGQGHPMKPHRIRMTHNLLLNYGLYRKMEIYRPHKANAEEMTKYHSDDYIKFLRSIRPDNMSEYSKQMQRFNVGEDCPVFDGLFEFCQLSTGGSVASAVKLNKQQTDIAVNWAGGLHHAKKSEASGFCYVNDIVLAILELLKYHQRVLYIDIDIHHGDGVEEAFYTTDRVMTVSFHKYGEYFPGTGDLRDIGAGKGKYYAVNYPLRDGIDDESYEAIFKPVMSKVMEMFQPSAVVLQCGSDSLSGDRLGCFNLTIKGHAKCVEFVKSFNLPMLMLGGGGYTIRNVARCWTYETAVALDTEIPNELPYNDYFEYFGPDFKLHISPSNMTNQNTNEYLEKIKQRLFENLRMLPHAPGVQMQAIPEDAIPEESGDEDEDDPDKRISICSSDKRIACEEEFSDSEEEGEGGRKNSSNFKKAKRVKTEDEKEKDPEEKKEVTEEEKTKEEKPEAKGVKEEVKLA
Procedure, shortened: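 Recombinant GST-HDAC1, cloned from SW620 cDNA and expressed in Sf9 cells, tested in a fluorogenic Fluor de Lys deacetylase assay. Developer was added for 10 min and fluorescence read at 360/460 nm. IC50 came from concentration series.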

[1] = Measurement of microsomal stability; type: in vitro ADME; details: pooled human liver microsomes, pH 7.4; human liver microsome, 5 μM test compound, 1.0 mg/ml microsomal protein
Experimental: Metabolic stability measurements in the in vitro using liver microsomes aids in the prediction of the in vivo hepatic clearance and the compound stability towards phase I biotransformation reactions mediated by P450 isozymes.
Pooled human liver microsome (HLM was purchased from BD Gentest (BD BioSciences). The incubations consisted of test compound (5 μM) or control compound (Verapamil), NADPH-generating system solution A (25 mM NADP^+, 66 mM glucose-6-phosphate, 66 mM MgCl2 in H2O), NADPH-generating system solution B (40 U/ml glucose-6-phosphate dehydrogenase in 5 mM sodium citrate) and 1.0 mg/ml microsomal protein, respectively, in 100 mM potassium phosphate buffer (pH 7.4). Samples were incubated for 0, 5, 15, 30, 45, 60 min. Reaction was terminated with ice-cold 80% acetonitrile and 20% DMSO. Samples were subsequently centrifuged at 4° C. for 15 min at 2,000 rpm. 100 μL of the supernatant was transferred to the LC-MS Plate for analysis. Before quantitative analysis, the compound was tuned in LC/MS machine to get the optimized MS condition. Liquid chromatography was performed on a Luna C18 column (Phenomenex U.S.A, Torrance, Calif.) (2×50 mm, 5 μM). % of the compound remaining (by area) at each time point is calculated with respect to time 0 min. Plot % remaining against time (min) to obtain the curve and use the Prism software to obtain the t1/2.

HEP3B = test: Cell-based proliferation assay for GI50 (CyQUANT), HEP3B; details: Homo sapiens, 96 h treatment, read-out: Cellular or Growth Inhibition Activity, GI50, HEP3B
Experimental: as §1

acetylated histone H3 = test: Histone H3 acetylation assay (immuno-blotting) in Colo205 cells; type: cell-based, Human; details: 10 μM, 24 h, western-blot
Experimental: A hallmark of histone deacetylase (HDAC) inhibition is the increase in the acetylation level of histones. Histone acetylation, including H3, H4 and H2A can be detected by immuno-blotting (western-blot). Colo205 cells, approximately 5×10^5 cells, were seeded in the previously described medium, cultivated for 24 h and subsequently treated with HDAC inhibitory agents and a positive control at a final concentration of 10 μM. After 24 h, cells were harvested and lysed according to the instruction from Sigma Mammalian Cell Lysis Kit. The protein concentration was quantified using BCA method (Sigma Pte Ltd). The protein lysate was separated using 4-12% bis-tris SDS-PAGE gel (Invitrogen Pte Ltd) and was transferred onto PVDF membrane (BioRad Pte Ltd). The membrane was probed using primary antibody specific for acetylated histone H3 (Upstate Pte Ltd). The detection antibody, goat anti rabbit antibody conjugated with HRP was used according to the manufacturing instruction (Pierce Pte Ltd). After removing the detection antibody from the membrane, an enhanced chemiluminescent substrate for detection of HRP (Pierce Pte Ltd) was added onto the membrane. After removing the substrate, the membrane was exposed to an X-ray film (Kodak) for 1 sec-20 mins. The X-ray film was developed using the X-ray film processor. The density of each band observed on the developed film could be qualitatively analyzed using UVP Bioimaging software (UVP, Inc, Upland, Calif.). The values were then normalized against the density of actin in the corresponding samples to obtain the expression of the protein.

CCN(CC)CCn1c(CC(C)C)nc2cc(/C=C/C(=O)NO)ccc21 [Compound 7, 3-[1-(2-Diethylamino-ethyl)-2-isobutyl-1H-benzoimidazol-5-yl]-N-hydroxy-acrylamide]
GI50 (HCT116): 1 to 5 µM | GI50 (PC3): 0.5 to 1 µM | GI50 (Colo205 cells): 0.81 µM | GI50 (A2780): 1 to 5 µM

CC/C=C\CCc1nc2cc(/C=C/C(=O)NO)ccc2n1CC(C)(C)CN(C)C [Compound 22, 3-[1-(3-Dimethylamino-2,2-dimethyl-propyl)-2-hex-3-enyl-1H-benzoimidazol-5-yl]-N-hydroxy-acrylamide]
GI50 (HCT116): 1 to 5 µM | IC50 (HDAC1 enzyme): 0.064 µM | GI50 (PC3): < 0.5 µM | GI50 (Colo205 cells): 0.75 µM | GI50 (A2780): < 0.5 µM

CC(Cc1nc2cc(/C=C/C(=O)NO)ccc2n1CC(C)(C)CN(C)C)CC(C)(C)C (stereo not shown) [Compound 23, 3-[1-(3-Dimethylamino-2,2-dimethyl-propyl)-2-(2,4,4-trimethyl-pentyl)-1H-benzoimidazol-5-yl]-N-hydroxy-acrylamide]
GI50 (HCT116): 0.5 to 1 µM | IC50 (HDAC1 enzyme): 0.045 µM | GI50 (PC3): < 0.5 µM | GI50 (Colo205 cells): 0.19 µM | GI50 (A2780): < 0.5 µM

CC/C=C\CCc1nc2cc(/C=C/C(=O)NO)ccc2n1CCNCC [Compound 30, 3-[1-(2-Ethylamino-ethyl)-2-hex-3-enyl-1H-benzoimidazol-5-yl]-N-hydroxy-acrylamide]
GI50 (HCT116): 0.5 to 1 µM | GI50 (PC3): < 0.5 µM | GI50 (Colo205 cells): 0.31 µM | GI50 (A2780): < 0.5 µM

CCNCCn1c(CC(C)CC(C)(C)C)nc2cc(/C=C/C(=O)NO)ccc21 (stereo not shown) [Compound 40, 3-[1-(2-Ethylamino-ethyl)-2-(2,4,4-trimethyl-pentyl)-1H-benzoimidazol-5-yl]-N-hydroxy-acrylamide]
GI50 (HCT116): < 0.5 µM | IC50 (HDAC1 enzyme): 0.027 µM | GI50 (PC3): < 0.5 µM | GI50 (Colo205 cells): 0.16 µM | half-life at 5 μM [1]: > 30 min | GI50 (A2780): < 0.5 µM

CCCCc1nc2cc(/C=C/C(=O)NO)ccc2n1CCNCC [Compound 44, 3-[2-Butyl-1-(2-ethylamino-ethyl)-1H-benzoimidazol-5-yl]-N-hydroxy-acrylamide]
GI50 (HCT116): 1 to 5 µM | IC50 (HDAC1 enzyme): 0.054 µM | GI50 (PC3): < 0.5 µM | GI50 (Colo205 cells): 0.87 µM | half-life at 5 μM [1]: > 30 min | GI50 (A2780): 0.5 to 1 µM

CCCCc1nc2cc(/C=C/C(=O)NO)ccc2n1CCNC(C)C [Compound 46, 3-[2-Butyl-1-(2-isopropylamino-ethyl)-1H-benzoimidazol-5-yl]-N-hydroxy-acrylamide]
GI50 (HCT116): < 0.5 µM | IC50 (HDAC1 enzyme): 0.049 µM | GI50 (PC3): < 0.5 µM | GI50 (Colo205 cells): 0.48 µM | half-life at 5 μM [1]: > 30 min | GI50 (HEP3B): 0.5 to 1 µM | GI50 (A2780): < 0.5 µM

CCCCCCc1nc2cc(/C=C/C(=O)NO)ccc2n1CCNC(C)C [Compound 50, 3-[2-Hexyl-1-(2-isopropylamino-ethyl)-1H-benzoimidazol-5-yl]-N-hydroxy-acrylamide]
GI50 (HCT116): < 0.5 µM | GI50 (PC3): < 0.5 µM | GI50 (Colo205 cells): 0.17 µM | GI50 (A2780): < 0.5 µM

CCCCCCc1nc2cc(/C=C/C(=O)NO)ccc2n1CCNCC [Compound 52, 3-[1-(2-Ethylamino-ethyl)-2-hexyl-1H-benzoimidazol-5-yl]-N-hydroxy-acrylamide]
GI50 (HCT116): < 0.5 µM | IC50 (HDAC1 enzyme): 0.025 µM | GI50 (PC3): < 0.5 µM | GI50 (Colo205 cells): 0.21 µM | half-life at 5 μM [1]: > 30 min | GI50 (A2780): < 0.5 µM

CCCCCCc1nc2cc(/C=C/C(=O)NO)ccc2n1CCN(C)C [Compound 58, 3-[1-(2-Dimethylamino-ethyl)-2-hexyl-1H-benzoimidazol-5-yl]-N-hydroxy-acrylamide]
GI50 (HCT116): < 0.5 µM | IC50 (HDAC1 enzyme): 0.03 µM | GI50 (PC3): < 0.5 µM | GI50 (Colo205 cells): 0.38 µM | half-life at 5 μM [1]: > 30 min | GI50 (HEP3B): < 0.5 µM | GI50 (A2780): < 0.5 µM

CCNCCn1c(CCC(C)(C)C)nc2cc(/C=C/C(=O)NO)ccc21 [Compound 63, 3-[1-(2-ethylamino-ethyl)-2-(3,3-dimethyl-butyl)-1H-benzoimidazol-5-yl]-N-hydroxy-acrylamide]
Histone Acetylation activities (Histone-3) (acetylated histone H3): Active | IC50 (HDAC1 enzyme): 0.051 µM | GI50 (Colo205 cells): 0.54 µM | half-life at 5 μM [1]: > 30 min

CCCCCc1nc2cc(/C=C/C(=O)NO)ccc2n1CCN(C)C [Compound 65, 3-[1-(2-Dimethylamino-ethyl)-2-pentyl-1H-benzoimidazol-5-yl]-N-hydroxy-acrylamide]
Histone Acetylation activities (Histone-3) (acetylated histone H3): Active | IC50 (HDAC1 enzyme): 0.078 µM | GI50 (Colo205 cells): 0.56 µM

CCCCCc1nc2cc(/C=C/C(=O)NO)ccc2n1CCNCC [Compound 68, 3-[1-(2-Ethylamino-ethyl)-2-pentyl-1H-benzoimidazol-5-yl]-N-hydroxy-acrylamide]
Histone Acetylation activities (Histone-3) (acetylated histone H3): Active | IC50 (HDAC1 enzyme): 0.034 µM | GI50 (Colo205 cells): 0.52 µM | half-life at 5 μM [1]: > 30 min

CCCCCc1nc2cc(/C=C/C(=O)NO)ccc2n1CCNC(C)C [Compound 71, N-Hydroxy-3-[1-(2-isopropylamino-ethyl)-2-pentyl-1H-benzoimidazol-5-yl]-acrylamide]
Histone Acetylation activities (Histone-3) (acetylated histone H3): Active | GI50 (HCT116): < 0.5 µM | IC50 (HDAC1 enzyme): 0.04 µM | GI50 (PC3): < 0.5 µM | GI50 (Colo205 cells): 0.24 µM | half-life at 5 μM [1]: > 30 min | GI50 (A2780): < 0.5 µM

CCCCCCc1nc2cc(/C=C/C(=O)NO)ccc2n1CCNC [Compound 74, 3-[2-Hexyl-1-(2-methylamino-ethyl)-1H-benzoimidazol-5-yl]-N-hydroxy-acrylamide]
Histone Acetylation activities (Histone-3) (acetylated histone H3): Active | IC50 (HDAC1 enzyme): 0.028 µM | GI50 (Colo205 cells): 0.55 µM | half-life at 5 μM [1]: > 30 min

CCN(CCn1cnc2cc(/C=C/C(=O)NO)ccc21)CCC(C)(C)C [Compound 111, 3-(1-{2-[(3,3-Dimethyl-butyl)-ethyl-amino]-ethyl}-1H-benzoimidazol-5-yl)-N-hydroxy-acrylamide]
IC50 (HDAC1 enzyme): 0.029 µM | GI50 (Colo205 cells): 0.21 µM | GI50 (HEP3B): < 0.5 µM
